Among the data in patent US20040006236A1, “Diaminopropionic acid derivatives” (priority 1999, published 2004) are IC50 values, retold here.

Test [1] relates to cell-surface Mac-1 adhesion to immobilized fibrinogen (HL-60 cells). Nature of the test: Mac-1/Fibrinogen cell-based screening assay. Details: species or system human. The note with it: Homo sapiens, HL-60, HL-60 cells; read-out: Mac-1/Fgn Cell based Assay IC50. Put shortly:
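Wells coated with fibrinogen and blocked with PVP. Labeled HL-60 cells (2×10^6 cells/mL in RPMI/0.05% BSA/0.2 mM MnCl2) preincubated with DMSO-diluted compounds for 10 min at 37° C, then left to adhere 30 min at 37° C/5% CO2. Unbound cells washed off with TBS.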

For test [2], the target named is T1, ICAM-1 binding to immobilized Mac-1 (Homo sapiens, UniProt P05107+P11215).
T1 construct: made in house; host or cells: transfected 293 cells (Mac-1)
T1 sequence (P05107 23-769, other chains not shown): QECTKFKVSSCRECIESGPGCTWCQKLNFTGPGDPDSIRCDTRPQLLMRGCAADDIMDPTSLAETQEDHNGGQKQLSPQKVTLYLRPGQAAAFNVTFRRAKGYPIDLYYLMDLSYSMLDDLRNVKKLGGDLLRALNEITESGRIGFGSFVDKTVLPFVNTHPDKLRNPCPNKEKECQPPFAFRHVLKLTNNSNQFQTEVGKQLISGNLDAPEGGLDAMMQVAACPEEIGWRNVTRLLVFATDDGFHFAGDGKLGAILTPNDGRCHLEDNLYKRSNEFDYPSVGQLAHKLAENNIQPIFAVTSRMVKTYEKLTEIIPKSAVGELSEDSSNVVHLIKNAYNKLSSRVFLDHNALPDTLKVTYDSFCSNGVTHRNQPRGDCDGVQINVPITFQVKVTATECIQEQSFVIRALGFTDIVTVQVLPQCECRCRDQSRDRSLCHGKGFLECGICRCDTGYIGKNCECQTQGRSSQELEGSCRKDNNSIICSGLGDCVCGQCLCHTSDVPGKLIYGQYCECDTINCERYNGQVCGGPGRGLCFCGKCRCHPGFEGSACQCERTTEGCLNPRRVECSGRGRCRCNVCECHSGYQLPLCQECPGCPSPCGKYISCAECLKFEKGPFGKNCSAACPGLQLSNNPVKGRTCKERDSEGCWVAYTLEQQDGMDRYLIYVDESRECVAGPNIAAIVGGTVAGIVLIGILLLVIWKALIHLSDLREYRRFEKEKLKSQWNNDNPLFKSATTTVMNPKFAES
Nature of the test: Mac-1/ICAM-1 screening assay (solid-phase ELISA). The note with it: read-out: Mac-1/ICAM-1 Protein-Protein Assay IC50. Put shortly:
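Competitive solid-phase ELISA: membrane Mac-1 from transfected 293 cells coated at 3 μg/mL in 20 mM Hepes pH 7.2/0.14 M NaCl/1 mM MnCl2; compounds (0.12 nM-20 μM, 1:4 series) plus 5dICAM-Ig (40 μg/mL, added) 2 h at 37° C. Bound ICAM-Ig detected with HRP anti-human IgG Fc, TMB, A450; IC50 reported.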
In general terms: ELISA stands for enzyme-linked immunosorbent assay.

Test [3] concerns T lymphocyte proliferation (C57BI/6 spleen cells with irradiated BALB/c spleen cells). In words: Mixed lymphocyte reaction (MLR), one-way. It is filed as cell-based, mice. The note with it: read-out: MLR IC50. In short, it runs like this: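 Irradiated BALB/c spleen cells mixed with C57BI/6 spleen cells in RPMI1640/10% heat-inactivated FBS/2-mercaptoethanol, with serial antagonist dilutions; 3 days at 5% CO2. Tritiated thymidine (0.5 μCi/well) added on day 3; incorporation counted by liquid scintillation after a further 6 h.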

SMILES strings stand for the structures. Read-outs that look alike come from different tables or passages of the source.

As for `COc1cccc(C(=O)NC[C@H](NC(=O)c2ccc(C(=O)NCc3cccc(O)c3)cc2Cl)C(=O)O)c1` [Example 76, N-[2-chloro-4-[[[(3-hydroxyphenyl)methyl]amino]-carbonyl]benzoyl]-3-(3-methoxybenzoylamino)-L-alanine], the IC50 in test [1] stood at 0.043 µM; in test [2], 0.0068 µM; in test [3] (Mus musculus, T-lymphocyte), 0.31 µM.
On to `O=C(NCc1cccc(O)c1)c1ccc(C(=O)N[C@@H](CNC(=O)C2CCCC2)C(=O)O)c(Cl)c1` [Example 101], for which the IC50 in test [1] was 0.079 µM; in test [2] it was 0.029 µM; in test [3] (Mus musculus, T-lymphocyte), 0.565 µM.
For `O=C(NCc1cccc(O)c1)c1ccc(C(=O)N[C@@H](CNC(=O)C2(c3ccccc3)CCCC2)C(=O)O)c(Cl)c1` [Example 103] the same measures were 0.123 µM, 0.021 µM and 0.52 µM.
`O=C(NCc1cccc(O)c1)c1ccc(C(=O)N[C@@H](CNC(=O)C2CCCCC2)C(=O)O)c(Cl)c1` [Example 104]: the IC50 in test [1] worked out at 0.082 µM; in test [2], 0.025 µM; in test [3] (Mus musculus, T-lymphocyte), 0.775 µM.
Take `CC1(C(=O)NC[C@H](NC(=O)c2ccc(C(=O)NCc3cccc(O)c3)cc2Cl)C(=O)O)CCCCC1` [Example 105]: the IC50 was 0.151 µM in test [1]; 0.022 µM in test [2]; 0.28 µM in test [3] (Mus musculus, T-lymphocyte).
On the same counts, the results for `O=C(CCN1CCCCC1)NC[C@H](NC(=O)c1ccc(C(=O)NCc2cccc(O)c2)cc1Cl)C(=O)O` [Example 112] are 0.161 µM, 0.018 µM and 0.375 µM.
For `O=C(/C=C/c1cccs1)NC[C@H](NC(=O)c1ccc(C(=O)NCc2cccc(O)c2)cc1Cl)C(=O)O` [Example 116] the same measures were 0.086 µM, 0.018 µM and 1.3 µM.
For the compound `CC(=O)Oc1ccccc1C(=O)NC[C@H](NC(=O)c1ccc(C(=O)NCc2cccc(O)c2)cc1Cl)C(=O)O` [Example 117], the IC50 in test [1] was 0.131 µM; in test [2], 0.033 µM; in test [3] (Mus musculus, T-lymphocyte), 0.29 µM.
As to `Nc1cccc(C(=O)NC[C@H](NC(=O)c2ccc(C(=O)NCc3cccc(O)c3)cc2Cl)C(=O)O)c1` [Example 118], the values for the IC50 in test [1], in test [2] and in test [3] were 0.016 µM, 0.023 µM and 0.145 µM, respectively.
Turning to `NS(=O)(=O)c1ccc(C(=O)NC[C@H](NC(=O)c2ccc(C(=O)NCc3cccc(O)c3)cc2Cl)C(=O)O)cc1` [Example 119], the IC50 was determined as 0.468 µM in test [1]; 0.026 µM in test [2]; 0.42 µM in test [3] (Mus musculus, T-lymphocyte).
For `O=C(NCc1cccc(O)c1)c1ccc(C(=O)N[C@@H](CNC(=O)c2cccc(Br)c2)C(=O)O)c(Cl)c1` [Example 121] the same measures were 0.08 µM, 0.009 µM and 0.53 µM.
On the same counts, the results for `O=C(NCc1cccc(O)c1)c1ccc(C(=O)N[C@@H](CNC(=O)c2cccc(Cl)c2)C(=O)O)c(Cl)c1` [Example 123] are 0.02 µM, 0.0069 µM and 0.3 µM.
Consider `N#Cc1cccc(C(=O)NC[C@H](NC(=O)c2ccc(C(=O)NCc3cccc(O)c3)cc2Cl)C(=O)O)c1` [Example 126], for which the IC50 in test [1] was found to be 0.027 µM; in test [2], 0.011 µM; in test [3] (Mus musculus, T-lymphocyte) it was 0.4 µM.
On the same counts, the results for `CN(C)c1cccc(C(=O)NC[C@H](NC(=O)c2ccc(C(=O)NCc3cccc(O)c3)cc2Cl)C(=O)O)c1` [Example 127] are 0.071 µM, 0.023 µM and 0.455 µM.
For `O=C(NCc1cccc(O)c1)c1ccc(C(=O)N[C@@H](CNC(=O)c2cccc(F)c2)C(=O)O)c(Cl)c1` [Example 131] the same measures were 0.012 µM, 0.0097 µM and 0.215 µM.
On the same counts, the results for `O=C(NCc1cccc(O)c1)c1ccc(C(=O)N[C@@H](CNC(=O)c2cccc(O)c2)C(=O)O)c(Cl)c1` [Example 132] are 0.0033 µM, 0.007 µM and 0.082 µM.
Consider `O=C(NCc1cccc(O)c1)c1ccc(C(=O)N[C@@H](CNC(=O)c2cccc(I)c2)C(=O)O)c(Cl)c1` [Example 133], for which the IC50 in test [1] turned out to be 0.032 µM; in test [2] it was 0.01 µM; in test [3] (Mus musculus, T-lymphocyte), 0.625 µM.
Take `COc1ccccc1C(=O)NC[C@H](NC(=O)c1ccc(C(=O)NCc2cccc(O)c2)cc1Cl)C(=O)O` [Example 134]: the IC50 turned out to be 0.218 µM in test [1]; 0.026 µM in test [2]; 1.55 µM in test [3] (Mus musculus, T-lymphocyte).
On the same counts, the results for `COC(=O)c1cccc(C(=O)NC[C@H](NC(=O)c2ccc(C(=O)NCc3cccc(O)c3)cc2Cl)C(=O)O)c1` [Example 136] are 0.121 µM, 0.016 µM and 0.49 µM.
Turning to `Cc1ccccc1C(=O)NC[C@H](NC(=O)c1ccc(C(=O)NCc2cccc(O)c2)cc1Cl)C(=O)O` [Example 137], the IC50 worked out at 0.084 µM in test [1]; 0.022 µM in test [2]; 0.325 µM in test [3] (Mus musculus, T-lymphocyte).
For `Cc1cccc(C(=O)NC[C@H](NC(=O)c2ccc(C(=O)NCc3cccc(O)c3)cc2Cl)C(=O)O)c1` [Example 138] the same measures were 0.017 µM, 0.01 µM and 0.205 µM.
Turning to `O=C(NCc1cccc(O)c1)c1ccc(C(=O)N[C@@H](CNC(=O)c2ccccc2[N+](=O)[O-])C(=O)O)c(Cl)c1` [Example 140], the IC50 in test [1] came out at 0.098 µM; in test [2], 0.047 µM; in test [3] (Mus musculus, T-lymphocyte) it was 0.35 µM.
On the same counts, the results for `O=C(NCc1cccc(O)c1)c1ccc(C(=O)N[C@@H](CNC(=O)c2cccc([N+](=O)[O-])c2)C(=O)O)c(Cl)c1` [Example 141] are 0.047 µM, 0.0096 µM and 0.45 µM.
On the same counts, the results for `O=C(NCc1cccc(O)c1)c1ccc(C(=O)N[C@@H](CNC(=O)c2ccc([N+](=O)[O-])cc2)C(=O)O)c(Cl)c1` [Example 142] are 0.275 µM, 0.013 µM and 0.5 µM.
On the same counts, the results for `O=C(NCc1cccc(O)c1)c1ccc(C(=O)N[C@@H](CNC(=O)c2cc(F)c(F)cc2F)C(=O)O)c(Cl)c1` [Example 145] are 0.131 µM, 0.024 µM and 1.45 µM.
Regarding `O=C(NCc1cccc(O)c1)c1ccc(C(=O)N[C@@H](CNC(=O)c2cccc(C(F)(F)F)c2)C(=O)O)c(Cl)c1` [Example 146], the IC50 was 0.153 µM in test [1]; 0.027 µM in test [2]; 0.49 µM in test [3] (Mus musculus, T-lymphocyte).
For `O=C(NCc1cccc(O)c1)c1ccc(C(=O)N[C@@H](CNC(=O)c2ccco2)C(=O)O)c(Cl)c1` [Example 148], the IC50 worked out at 0.076 µM in test [1]; 0.018 µM in test [2]; 0.335 µM in test [3] (Mus musculus, T-lymphocyte).
For `O=C(NCc1cccc(O)c1)c1ccc(C(=O)N[C@@H](CNC(=O)c2ccc(Br)o2)C(=O)O)c(Cl)c1` [Example 150] the same measures were 0.065 µM, 0.021 µM and 0.8 µM.
`Cc1noc(C)c1C(=O)NC[C@H](NC(=O)c1ccc(C(=O)NCc2cccc(O)c2)cc1Cl)C(=O)O` [Example 153]: the IC50 in test [1] was 0.804 µM; in test [2] it was 0.203 µM.
For the compound `C[C@@H](NC(=O)c1cc(Cl)c(C(=O)N[C@@H](CNC(=O)c2cccs2)C(=O)O)c(Cl)c1)c1cccc2ccccc12` [Example 346, N-[2,6-dichloro-4-[[[(1R)-1-(1-naphthalenyl)ethyl]amino]carbonyl]benzoyl]-3-[(thiophene-2-carbonyl)amino]-L-alanine], the IC50 is 0.004 µM in test [1] and 0.068 µM in test [3] (Mus musculus, T-lymphocyte).
In the case of `C[C@@H](NC(=O)c1cc(Cl)c(C(=O)N[C@@H](CNC(=O)c2ccccc2)C(=O)O)c(Cl)c1)c1cccc2ccccc12` [Example 347], the IC50 in test [1] came out at 0.0131 µM; in test [3] (Mus musculus, T-lymphocyte), 0.25 µM.
For `O=C(NCc1cccc(O)c1)c1cc(Cl)c(C(=O)N[C@@H](CNC(=O)c2cccc(F)c2)C(=O)O)c(Cl)c1` [Example 349] the same measures were 0.0062 µM and 0.042 µM.
With `O=C(NCc1cccc(O)c1)c1cc(Cl)c(C(=O)N[C@@H](CNC(=O)c2cccc(O)c2)C(=O)O)c(Cl)c1` [Example 350], the IC50 in test [1] worked out at 0.0005 µM; in test [3] (Mus musculus, T-lymphocyte), 0.012 µM.
On the same counts, the results for `COc1ccc(C(=O)NC[C@H](NC(=O)c2c(Cl)cc(C(=O)NCc3cccc(O)c3)cc2Cl)C(=O)O)cc1O` [Example 351] are 0.003 µM and 0.023 µM.
As to `O=C(NCc1cccc(O)c1)c1cc(Cl)c(C(=O)N[C@@H](CNC(=O)c2sccc2Br)C(=O)O)c(Cl)c1` [Example 353], the IC50 was determined as 0.013 µM in test [1] and 0.052 µM in test [3] (Mus musculus, T-lymphocyte).
For `O=C(NCc1cccc(O)c1)c1cc(Cl)c(C(=O)N[C@@H](CNC(=O)c2ccc(Br)s2)C(=O)O)c(Cl)c1` [Example 354] the same measures were 0.012 µM and 0.203 µM.
On the same counts, the results for `Cc1ccc(C(=O)NC[C@H](NC(=O)c2c(Cl)cc(C(=O)NCc3cccc(O)c3)cc2Cl)C(=O)O)s1` [Example 358] are 0.0065 µM and 0.064 µM.
